Data as given in ChEMBL document CHEMBL4418308, “cGAS ANTAGONIST COMPOUNDS” (2017).

Target: Cyclic GMP-AMP synthase (Homo sapiens, UniProt Q8N884)
Test: Inhibition of recombinant His6-SUMO tagged human CGAS expressed in Escherichia coli BL21/pLys cells incubated for 20 mins by Kinase Glo chemiluminescence assay

Sequence of Cyclic GMP-AMP synthase (Q8N884 whole entry): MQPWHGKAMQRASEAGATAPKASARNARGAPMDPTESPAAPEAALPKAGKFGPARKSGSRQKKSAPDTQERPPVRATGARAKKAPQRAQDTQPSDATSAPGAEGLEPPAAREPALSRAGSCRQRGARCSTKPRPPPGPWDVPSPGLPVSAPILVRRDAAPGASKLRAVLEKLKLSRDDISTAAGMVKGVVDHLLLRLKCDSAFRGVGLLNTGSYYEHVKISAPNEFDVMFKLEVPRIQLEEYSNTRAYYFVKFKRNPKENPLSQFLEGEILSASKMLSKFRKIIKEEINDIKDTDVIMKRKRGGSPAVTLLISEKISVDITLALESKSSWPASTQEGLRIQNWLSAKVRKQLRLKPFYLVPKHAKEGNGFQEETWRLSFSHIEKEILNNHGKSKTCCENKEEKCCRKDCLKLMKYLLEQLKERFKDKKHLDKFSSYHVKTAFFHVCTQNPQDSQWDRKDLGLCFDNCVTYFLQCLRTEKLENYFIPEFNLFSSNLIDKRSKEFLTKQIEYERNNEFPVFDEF

IC50	SMILES
≥ 10 µM	CN1C(=O)S/C(=C\c2cc(OCc3cncc(N)c3)c(O)cc2Br)C1=O
≤ 0.5 µM	CN1C(=O)S/C(=C\c2cc(OCc3cnc(NC(=O)c4ccncc4)nc3)c(O)cc2Br)C1=O
≥ 10 µM	CN1C(=O)S/C(=C\c2cc(OCc3cnc(Nc4ccccc4)nc3)c(O)cc2Br)C1=O
≥ 10 µM	CN1C(=O)S/C(=C\c2cc(OCc3cnc(C4CC4)nc3)c(O)cc2Br)C1=O
≥ 10 µM	CSc1ncc(COc2cc(/C=C3\SC(=O)N(C)C3=O)c(Br)cc2O)c(Cl)n1
≥ 10 µM	CC(C)COc1cc(/C=C2\SC(=O)N(C)C2=O)c(Br)cc1O
≥ 10 µM	CC(C)Nc1ncc(COc2cc(/C=C3\SC(=O)N(C)C3=O)c(Br)cc2O)cn1
≥ 10 µM	CN1C(=O)S/C(=C\c2cc(OCc3cnc(N(C)C)nc3)c(O)cc2Br)C1=O
≥ 10 µM	CN1C(=O)S/C(=C\c2cc(OCc3cnc(Nc4ccccn4)nc3)c(O)cc2Br)C1=O
≤ 0.5 µM	Cc1ncc(COc2cc(/C=C3\SC(=O)N(C)C3=O)c(Br)cc2O)cn1
≥ 10 µM	CN1C(=O)S/C(=C\c2cc(OCC3CCN(C(=O)c4ccccn4)CC3)c(O)cc2Br)C1=O
≥ 10 µM	C#Cc1cc(O)c(OC)cc1/C=C1\SC(=O)N(C)C1=O
≥ 10 µM	CN1C(=O)S/C(=C\c2cc(OCc3cnc(N4CCCCC4)nc3)c(O)cc2Br)C1=O
≤ 0.5 µM	CC(Oc1cc(/C=C2\SC(=O)N(C)C2=O)c(Br)cc1O)c1cnc(N)nc1 (centres undefined)
≤ 0.5 µM	COc1cc(/C=C2\SC(=O)N(C)C2=S)c(Br)cc1O
≥ 10 µM	COc1nc(SC)ncc1COc1cc(/C=C2\SC(=O)N(C)C2=O)c(Br)cc1O
≤ 0.5 µM	CN1C(=O)S/C(=C\c2cc(OCc3cnc(-c4ccncc4)nc3)c(O)cc2Br)C1=O
≥ 10 µM	CN1C(=O)S/C(=C\c2cc(OCc3ccccc3)c(O)cc2Br)C1=O
≥ 10 µM	CC(=O)c1cc(/C=C2\SC(=O)N(C)C2=O)c(Br)cc1O
≥ 10 µM	CN1CCC(COc2cc(/C=C3\SC(=O)N(C)C3=O)c(Br)cc2O)CC1
≥ 10 µM	CN1C(=O)S/C(=C\c2cc(OCc3ccc(NC(=O)c4ccccn4)nc3)c(O)cc2Br)C1=O
≥ 10 µM	CN1C(=O)S/C(=C\c2cc(Oc3ccccc3)c(O)cc2Br)C1=O

IC50	SMILES
≥ 10 µM	CN1C(=O)S/C(=C\c2cc(Oc3ccc([N+](=O)[O-])nc3)c(O)cc2Br)C1=O
≥ 10 µM	CN1C(=O)S/C(=C\c2cc(OCc3cnc(N4CCOCC4)nc3)c(O)cc2Br)C1=O
≥ 10 µM	COc1cc(/C=C2\SC(=O)N(C)C2=O)c(F)cc1O
≥ 10 µM	CN1C(=O)S/C(=C\c2cc(OCC3CCN(C(=O)c4ccncc4)CC3)c(O)cc2Br)C1=O
≤ 0.5 µM	CN1C(=O)S/C(=C\c2cc(OCc3cnc(Nc4ccncc4)nc3)c(O)cc2Br)C1=O
≥ 10 µM	CSc1ncc(COc2cc(/C=C3\SC(=O)N(C)C3=O)c(Br)cc2O)c(SC)n1
≥ 10 µM	CN1C(=O)S/C(=C\c2cc(OCc3cnc(N4CCCC4)nc3)c(O)cc2Br)C1=O
≥ 10 µM	CN1C(=O)S/C(=C\c2ccc(O)cc2Br)C1=O
≤ 0.5 µM	CN1C(=O)S/C(=C\c2cc(OCc3ccc(NC(=O)c4ccncc4)nc3)c(O)cc2Br)C1=O
≥ 10 µM	CN1C(=O)S/C(=C\c2cc(OCc3cnc(-c4ccccc4)nc3)c(O)cc2Br)C1=O
≥ 10 µM	CN1C(=O)S/C(=C\c2cc(OCc3ccn(Cc4ccccc4)c(=O)c3)c(O)cc2Br)C1=O
≥ 10 µM	CSc1ncc(COc2cc(/C=C3\SC(=O)N(C)C3=O)c(Br)cc2O)cn1
≥ 10 µM	CC(Oc1cc(/C=C2\SC(=O)N(C)C2=O)c(Br)cc1O)c1cnc(Cl)nc1 (centres undefined)
≥ 10 µM	CN1C(=O)S/C(=C\c2cc(OCc3cnc(NCc4ccccc4)nc3)c(O)cc2Br)C1=O
≥ 10 µM	COc1cc(/C=C/C=C2\SC(=O)N(C)C2=O)c(Br)cc1O
≥ 10 µM	CN1C(=O)S/C(=C\c2cc(OCc3ccn(-c4ccccc4)c(=O)c3)c(O)cc2Br)C1=O
≥ 10 µM	CNc1ncc(C(C)Oc2cc(/C=C3\SC(=O)N(C)C3=O)c(Br)cc2O)cn1 (centres undefined)
≥ 10 µM	CN1C(=O)S/C(=C\c2cc(OCc3ccccn3)c(O)cc2Br)C1=O
≥ 10 µM	CN1C(=O)S/C(=C\c2cc(Oc3ccnc(N)c3)c(O)cc2Br)C1=O
≥ 10 µM	CC(C)CNc1ncc(COc2cc(/C=C3\SC(=O)N(C)C3=O)c(Br)cc2O)cn1
≥ 10 µM	CN1C(=O)S/C(=C\c2cc(OCc3cnc(-c4cccnc4)nc3)c(O)cc2Br)C1=O

The next lines start with the compound.

SMILES	IC50
O=C1NC(=O)/C(=C/c2ccncc2)N1	0.5 to 10 µM
O=C1NC(=O)/C(=C/c2cccnc2)S1	≥ 10 µM
O=C1NC(=O)/C(=C/c2ccncc2)S1	≤ 0.5 µM
O=C1/C(=C/c2cc3oc(=O)[nH]c3cc2Br)Sc2ncccc21	≥ 10 µM
COc1cc(/C=C2\Sc3ncccc3C2=O)c(Br)c(Br)c1O	≥ 10 µM
CC(Oc1cc(/C=C2\SC(=O)N(C)C2=O)c(Br)cc1O)c1cncnc1 (centres undefined)	0.5 to 10 µM
O=C1/C(=C/c2ccc(O)cc2Br)Sc2ncccc21	≤ 0.5 µM
CN1C(=O)S/C(=C\c2cc(OCc3ccnc(N)c3)c(O)cc2Br)C1=O	0.5 to 10 µM
O=C1NC(=O)/C(=C/c2cncnc2)S1	≥ 10 µM
COc1cc(/C=c2\sc3n(c2=O)CCCN=3)c(Cl)cc1O	≥ 10 µM
CN1C(=O)S/C(=C\c2cc3nn[nH]c3cc2Br)C1=O	≥ 10 µM
CN1C(=O)S/C(=C\c2cc3cc[nH]c3cc2Br)C1=O	0.5 to 10 µM
O=C1/C(=C/c2cc(OCc3ccncc3)c(O)cc2Br)Sc2ncccc21	≤ 0.5 µM
CN1C(=O)S/C(=C\c2cc(OCc3ccc(=O)[nH]c3)c(O)cc2Br)C1=O	0.5 to 10 µM
COc1cc(/C=c2\sc3n(c2=O)CCN=3)c(Cl)cc1O	≥ 10 µM
CN1C(=O)S/C(=C\c2cc(OCc3cnc(C4CCNCC4)nc3)c(O)cc2Br)C1=O	0.5 to 10 µM
CN1C(=O)S/C(=C\c2cc(OCC3CCN(C(=O)c4ccccc4)CC3)c(O)cc2Br)C1=O	≥ 10 µM
CN1C(=O)S/C(=C\c2cc(OCc3cnc(Nc4cccnc4)nc3)c(O)cc2Br)C1=O	0.5 to 10 µM
COc1cc(/C=C2\SC(=O)N(C)C2=O)c(Br)cc1-c1nn[nH]n1	≥ 10 µM
COc1cc(/C=C2\Sc3ncccc3C2=O)c(C)cc1O	0.5 to 10 µM
CCc1cc(/C=C2\SC(=O)N(C)C2=O)c(Br)cc1O	0.5 to 10 µM
COc1cc(/C=c2\sc3n(c2=O)CCCN=3)c(Br)cc1O	≥ 10 µM

SMILES	IC50
COc1cc(/C=C2\SC(=O)N(C)C2=O)c(Br)cc1NS(=O)(=O)c1ccccc1	≥ 10 µM
N=C1NC(=O)/C(=C/c2ccncc2)S1	≥ 10 µM
COc1cc(/C=C2\Sc3nccnc3C2=O)c(Br)cc1O	≥ 10 µM
O=C1NC(=O)/C(=C/c2ccncc2C(F)(F)F)S1	≥ 10 µM
CC(Oc1cc(/C=C2\Sc3ncccc3C2=O)c(Br)cc1O)c1cnc(Cl)nc1 (centres undefined)	≤ 0.5 µM
CN1C(=O)S/C(=C\c2cc(OCc3ccc(NC(=O)c4cccnc4)nc3)c(O)cc2Br)C1=O	0.5 to 10 µM
CN1C(=O)S/C(=C\c2cc(OCc3cnc(N)nc3C3CC3)c(O)c(F)c2Br)C1=O	0.5 to 10 µM
CN1C(=O)S/C(=C\c2cc3oc(=O)[nH]c3cc2Br)C1=O	≥ 10 µM
COc1cc(/C=c2\sc3n(c2=O)CCN=3)c(Br)cc1O	≥ 10 µM
COc1cc(/C=C2\SC(=O)N(C)C2=O)c(Br)c(Cl)c1O	≥ 10 µM
COc1cc(/C=C2\SC(=O)N(C)C2=O)c(C(F)(F)F)cc1O	≥ 10 µM
COc1cc(/C=C2\Sc3cnccc3C2=O)c(Br)cc1O	≤ 0.5 µM
CCc1cc(/C=C2\Sc3ncccc3C2=O)c(Br)cc1O	≤ 0.5 µM
COc1cc(/C=C2\SC(=O)N(C)C2=O)c(C)cc1O	0.5 to 10 µM
CNc1ncc(C(C)Oc2cc(/C=C3\SC(=O)N(C)C3=O)c(Br)c(F)c2O)cn1 (centres undefined)	≥ 10 µM
COc1cc(/C=C2\SC(=O)N(C)C2=O)c(Br)cc1NS(C)(=O)=O	≥ 10 µM
COc1cc(/C=C2\Sc3ncccc3C2=O)c(Br)c(Cl)c1O	≤ 0.5 µM
O=C1NC(=O)/C(=C/c2ccnnc2)N1	≥ 10 µM
O=C1NC(=O)/C(=C2\CCCc3cnccc32)S1	≤ 0.5 µM
CN1C(=O)S/C(=C\c2cc(OCc3ccnc(N)n3)c(O)cc2Br)C1=O	0.5 to 10 µM
COc1cc(/C=c2\sc3nc(C)cn3c2=O)c(Br)cc1O	≥ 10 µM
CN1C(=O)S/C(=C\c2cc(O)c(O)cc2F)C1=O	≥ 10 µM

SMILES	IC50
COc1cc(/C=C2\SC(=O)N(C)C2=O)c(Br)cc1NS(=O)(=O)C(F)(F)F	0.5 to 10 µM
COc1cc(/C(Br)=C2\SC(=O)N(C)C2=O)c(Br)cc1O	≥ 10 µM
CN1C(=O)S/C(=C\c2cc(OCc3cc[nH]c(=O)c3)c(O)cc2Br)C1=O	0.5 to 10 µM
O=C1NC(=O)/C(=C/c2c[nH]cn2)S1	≥ 10 µM
CC(=O)Nc1nc(S(=O)(=O)Nc2cc(Br)c(/C=C3\SC(=O)N(C)C3=O)cc2OCc2ccccc2)cs1	0.5 to 10 µM
CC(Oc1cc(/C=C2\Sc3ncccc3C2=O)c(Br)cc1O)c1cccnc1 (centres undefined)	0.5 to 10 µM
Nc1ncc(COc2cc(/C=C3\Sc4ncccc4C3=O)c(Br)cc2O)c(C(F)(F)F)n1	≤ 0.5 µM
C/C(=C1/SC(=O)NC1=O)c1ccncc1	≤ 0.5 µM
Cc1ncc(COc2cc(/C=C3\Sc4ncccc4C3=O)c(Br)cc2O)c(C)n1	≤ 0.5 µM
COc1ncc(COc2cc(/C=C3\SC(=O)N(C)C3=O)c(Br)cc2O)cn1	0.5 to 10 µM
O=C1/C(=C/c2cc3nn[nH]c3cc2Br)Sc2ncccc21	≤ 0.5 µM
COc1cc(/C=C2\Sc3ncccc3C2=O)c(I)cc1O	≤ 0.5 µM
CN1C(=O)S/C(=C\c2cc(OCc3cnc(-c4ccccn4)nc3)c(O)cc2Br)C1=O	0.5 to 10 µM
COc1cc2c(cc1O)CC/C2=C1/SC(=O)N(C)C1=O	≥ 10 µM
CSc1cc(/C=C2\SC(=O)N(C)C2=O)c(Br)cc1O	0.5 to 10 µM
O=C1NC(=O)/C(=C/c2cnccn2)S1	≥ 10 µM
Cc1cnccc1/C=C1\SC(=O)NC1=O	≤ 0.5 µM
CN1C(=O)S/C(=C\c2cc(OCC3CCN(C(=O)c4cccnc4)CC3)c(O)cc2Br)C1=O	0.5 to 10 µM
COc1cc(/C=C2\Sc3ncncc3C2=O)c(Br)cc1O	0.5 to 10 µM
COc1cc(/C=C2\SC(=O)N(C)C2=O)c(Br)cc1NS(=O)(=O)c1ccc(C)cc1	≥ 10 µM
COc1cc(/C=C2\Sc3ncc(F)cc3C2=O)c(Br)cc1O	≤ 0.5 µM
COc1cc(/C=C2\Sc3ncccc3C2=O)c(Br)cc1Oc1cnc(N)s1	≥ 10 µM
